# Patent EP3315495A1, “N,N' -[…], N,N' -DIAR[…] N,N' -DIARY[…] FOR USE IN TREATMENT AND PREVENTION OF INFLAMMATORY DISEASE” (Universität Innsbruck, priority 2016, dated 2018)
# pIC50: −log10 of the molar value. Entries after “also recorded” stand apart in the source; their conditions may differ. Marks after values point to notes of the source that are not given here.
# What was measured:
# [1] = tested on: 5-LOX product formation in PMNL; assay: 5-LOX product formation in PMNL stimulated with A23187 (cell-based); set-up: species or system human; settings: for Effect on 5-LOX product formation in PMNL: result in words; for inhibition at 1 µM: read-out: Effect on 5-LOX product formation in PMNL, % inhibition
# Procedure: Briefly, first a cell-based assay allows to determine the inhibition of the 5-LOX product biosynthesis. The cell suspension contained human neutrophils (PMNL) or monocytes, wherein the cells were isolated from buffy coats obtained from healthy donors pooled by gender. An aliquot cell suspension was incubated with the candidate compound for 15 min at 37 °C. The cells are treated with calcium ionophore A23187 to stimulate 5-LOX product formation for further 10 min (37 °C), optionally in presence of various concentrations of AA. The reaction was stopped with 1 mL methanol on ice.
# In both assays, product quantification was conducted with RP-HPLC and UV detection after solid phase extraction and addition of 200 ng prostaglandin B1 as internal standard.
# FLAP = biological target: T1, FLAP (Homo sapiens, UniProt P20292); settings: active = inhibition of product formation in cells without 5-LOX activity in the cell-free assay
# T1 sequence (P20292 1-161): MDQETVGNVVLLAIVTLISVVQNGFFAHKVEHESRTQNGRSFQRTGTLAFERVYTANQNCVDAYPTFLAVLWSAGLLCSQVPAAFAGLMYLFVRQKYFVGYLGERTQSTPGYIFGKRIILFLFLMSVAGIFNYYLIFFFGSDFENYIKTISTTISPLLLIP
# Procedure: The enzyme was preincubated for 15 min with the potential inhibitor on ice and subsequently exposed to 2 mM CaCl2 and 20 µM AA for 10 min at 37°C.
# Effect on 5-LOX product formation and sEH activity is determined as described above. In case of observed effect on 5-LOX product formation in the cellular assay, 5-LOX activity was investigated with isolated 5-LOX.
# sEH [2] = biological target: T2, sEH (Homo sapiens, UniProt P34913); assay: biochemical; settings: for inhibition at 0.1 µM / inhibition at 1 µM: read-out: Effect on sEH activity, % inhibition
# T2 sequence (P34913 1-555): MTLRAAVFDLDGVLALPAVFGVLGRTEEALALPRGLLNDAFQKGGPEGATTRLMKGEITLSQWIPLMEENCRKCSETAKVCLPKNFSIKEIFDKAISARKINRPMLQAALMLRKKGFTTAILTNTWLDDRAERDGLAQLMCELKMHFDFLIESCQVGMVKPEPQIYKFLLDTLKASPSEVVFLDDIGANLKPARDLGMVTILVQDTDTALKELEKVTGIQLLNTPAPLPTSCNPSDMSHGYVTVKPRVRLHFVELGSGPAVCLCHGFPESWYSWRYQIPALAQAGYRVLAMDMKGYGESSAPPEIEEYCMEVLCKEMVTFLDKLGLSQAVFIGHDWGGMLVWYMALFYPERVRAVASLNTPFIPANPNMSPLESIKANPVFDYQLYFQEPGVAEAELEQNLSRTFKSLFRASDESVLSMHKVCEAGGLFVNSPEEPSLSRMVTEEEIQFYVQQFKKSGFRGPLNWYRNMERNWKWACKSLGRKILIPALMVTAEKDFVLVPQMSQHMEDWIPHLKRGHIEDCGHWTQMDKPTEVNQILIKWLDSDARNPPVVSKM
# Procedure: (§1) In brief, sEH was expressed in transfected Sf9-cells. Isolation of sEH from the cell pellet was conducted with a benzylthiosepharose matrix. […] The reaction was stopped with ZnSO4 (0.2 M) after 60 min incubation. […] Inhibitors were tested for self fluorescence. Positive controls were AUDA (12-(3-adamantan-1-yl-ureido)dodecanacid) and DCU (N,N'-dicyclohexylurea) at 10 µM.
# sEH [3] = biological target: T2, sEH; settings: result in words
# Procedure: as §1
# [4] = tested on: leukotriene mediated peritonitis; assay: Zymosan-induced peritonitis model in mice; assay type: in vivo, CD1 male mice; settings: intraperitoneal, 30 min prior to zymosan
# Procedure: Compound I-12 was evaluated in vivo in a peritonitis model in mice. The experimental protocols were approved by the Animal Care Committee of the University of Naples Federico II, in compliance with Italian regulations on protection of animals used for experimental and other scientific purpose (Ministerial Decree 116/92) as well as with the European Economic Community regulations (Official Journal of E.C. L 358/1 12/18/1986); protocol number: 2014/0018760 27th February 2014. CD1 male mice with an age of six to eight weeks were investigated. The leukotriene mediated peritonitis is induced by injection of 1 mg zymosan in 50 µl saline solution. 30 min prior to induction, the candidate compound was applied as intraperitoneal injection in different concentrations as well as DMSO as negative control and positive controls (MK886, zileuton). Results are given in Table 3, wherein […] and LTB 4 levels are measured as well as vascular permeability (VP) and the cell recruitment in the peritoneal cavity (Cell Rec). Table 3: Results from an in vivo study with a mouse peritonitis model
# In Table 3, values in percent indicate the percent inhibition in respect to the vehicle control. Statistical significance is determined via ANOVA Bonferroni, wherein * indicates p<0.05; ** indicates p<0.01; *** indicates p<0.001 vs. vehicle. N indicates the number of investigated mice.
Compound,Effect on 5-LOX product formation in PMNL [1],Effect on FLAP activity (FLAP),inhibition at 0.1 µM (sEH [2]),Effect on sEH activity (sEH [3]),further results
O=C(Nc1ccccc1)Nc1ccc(CCc2nc3ccccc3[nH]2)cc1 [Compound L3],inactive,inactive,30%,,
Cc1cc(OCc2nc3ccccc3s2)ccc1NC(=O)Nc1cccc2ccccc12 [Compound I12-4],,active,,inactive,"inhibition at 1 µM ([1]; Homo sapiens, PMNL): 70%"
"Cc1cc(OCc2nc3ccccc3s2)ccc1NC(=O)NC1CCCCC1 [Compound I12-2, N-[4-(2-benzothiazolylmethoxy)-2-methylphenyl]-N'-cyclohexyl-urea, reference compound]",did not show an effect; also recorded: inactive,did not show an effect; also recorded: inactive,75%,,
"CCNC(=O)Nc1ccc(OCc2nc3ccccc3s2)cc1C [Compound I12-7, reference compound]",inactive,inactive,,inactive,
"Cc1cc(OCc2nc3ccccc3[nH]2)ccc1NC(=O)Nc1ccc(Cl)c(Cl)c1 [EZ14, N-[4-(1H-Benzimidazol-2-ylmethoxy)-2-methylphenyl]-N'-(3,4-dichlorophenyl)-urea]",,,,,"pIC50 ([1]; Homo sapiens, PMNL, read-out: Effect on 5-LOX product formation in PMNL, IC50): 6.11; pIC50 (sEH [2]): 7.26"
O=C(Nc1ccc(Cl)cc1)Nc1ccc(CCc2nc3ccccc3[nH]2)cc1 [Compound L4],inactive,inactive,78%,,
"Cc1cc(OCc2nc3ccccc3s2)ccc1NC(=O)COc1ccc(Cl)cc1Cl [Compound I12-6, reference compound]",inactive,inactive,,inactive,
O=C(Nc1ccc(OCc2nc3ccccc3o2)cc1)Nc1ccc(Cl)c(Cl)c1 [TS04],inactive,inactive,,,inhibition at 1 µM (sEH [2]): ~96%
"Cc1cc(OCc2nc3ccccc3s2)ccc1NC(=O)c1ccc(Cl)cc1 [Compound I12-12, reference compound]",inactive,inactive,,inactive,
"Cc1cccc(OCC(=O)Nc2ccc(OCc3nc4ccccc4s3)cc2C)c1 [Compound I12-11, reference compound]",,active,,did not show sEH inhibition; also recorded: inactive,"inhibition at 1 µM ([1]; Homo sapiens, PMNL): 97%"
COc1ccc(NC(=O)Nc2ccc(CCc3nc4ccccc4[nH]3)cc2)cc1 [Compound L5],inactive,inactive,50%,,
"CSc1ccc(N/N=C/c2nc3ccccc3s2)cc1 [Compound I12-9, reference compound]",inactive,inactive,,inactive,
Cc1cccc(NC(=O)Nc2ccc(OCc3nc4ccccc4s3)cc2C)c1 [Compound I12-3],,active,55%,,"inhibition at 1 µM ([1]; Homo sapiens, PMNL): 100%"
Cn1c(CCc2ccc(NC(=O)Nc3cccc(Cl)c3)cc2)nc2ccccc21 [Compound L8],inactive,inactive,65%,,
"CC(C)c1ccc2c(c1)c(SC(C)(C)C)c(CC(C)(C)C(=O)O)n2Cc1ccc(Cl)cc1 [MK886, reference compound]",,,,,"Cell Rec (cell recruitment in the peritoneal cavity) ([4]; 1 mg): 4.54±0.326 10^6/ml; Cell Rec, percent inhibition in respect to the vehicle control ([4]; 1 mg): 41%***; LTB4 ([4]; 1 mg): 258 ± 48 pg/mL; LTB4, percent inhibition in respect to the vehicle control ([4]; 1 mg): 63%**; LTC4 ([4]; 1 mg): 24.2 ± 2.98 ng/mL; LTC4, percent inhibition in respect to the vehicle control ([4]; 1 mg): 73%***; VP (vascular permeability) ([4]; 3 mg): 0.303±0.018 abs 610 nm; VP, percent inhibition in respect to the vehicle control ([4]; 3 mg): 51%"
"CC(c1cc2ccccc2s1)N(O)C(N)=O (stereo not drawn) [ZIL, zileuton, reference compound]",,,,,"LTC4 ([4]; 10 mg): 56.5 ± 4.58 ng/mL; LTC4, percent inhibition in respect to the vehicle control ([4]; 10 mg): 36%*; VP (vascular permeability) ([4]; 10 mg): 0.639±0.104 abs 610 nm"
"CCn1c(COc2ccc3ccccc3c2)nc2ccccc21 [Compound I12-1, reference compound]",inactive,inactive,,inactive,
"CC(C)c1ccc(OCc2nc3ccccc3[nH]2)cc1 [Compound I12-10, reference compound]",inactive,inactive,,inactive,
O=C(Nc1ccc(CCc2nc3ccccc3[nH]2)cc1)Nc1cccc(Cl)c1 [Compound L2],inactive,inactive,50%,,
"Cc1cc(OCc2nc3ccccc3o2)ccc1NC(=O)Nc1ccc(Cl)c(Cl)c1 [SE04, N-[4-(2-Benzoxazolylmethoxy)-2-methylphenyl]-N'-(3,4-dichlorophenyl)-urea]",,,,,"inhibition at 1 µM ([1]; Homo sapiens, PMNL): ~85%; inhibition at 1 µM (sEH [2]): ~87%"
"COc1cc(/C=N/NC(=O)c2ccc(CSc3nc4ccccc4s3)o2)cc(Br)c1O [Compound I12-8, reference compound]",inactive,inactive,30%,,
COc1cccc(NC(=O)Nc2ccc(CCc3nc4ccccc4[nH]3)cc2)c1 [Compound L1],inactive,inactive,30%,,
O=C(Nc1ccc(F)cc1)Nc1ccc(CCc2nc3ccccc3[nH]2)cc1 [Compound L6],inactive,inactive,55%,,
"Cc1cccc(OCc2nc3ccccc3s2)c1C [Compound I12-13, reference compound]",inactive,inactive,,inactive,
"Cc1cc(OCc2nc3ccccc3s2)ccc1NC(=O)c1cccc(F)c1 [Compound I12-5, reference compound]",inactive,inactive,,inactive,
